In ChEMBL document CHEMBL5442219:

Tests used:
Settings in all cases: Compound concentration 10 µM
[1] = molecular target: Sodium-dependent noradrenaline transporter (Homo sapiens) (UniProt P23975)
[2] = molecular target: T1, D(4) dopamine receptor (Homo sapiens) (UniProt P21917)
T1 sequence (whole entry): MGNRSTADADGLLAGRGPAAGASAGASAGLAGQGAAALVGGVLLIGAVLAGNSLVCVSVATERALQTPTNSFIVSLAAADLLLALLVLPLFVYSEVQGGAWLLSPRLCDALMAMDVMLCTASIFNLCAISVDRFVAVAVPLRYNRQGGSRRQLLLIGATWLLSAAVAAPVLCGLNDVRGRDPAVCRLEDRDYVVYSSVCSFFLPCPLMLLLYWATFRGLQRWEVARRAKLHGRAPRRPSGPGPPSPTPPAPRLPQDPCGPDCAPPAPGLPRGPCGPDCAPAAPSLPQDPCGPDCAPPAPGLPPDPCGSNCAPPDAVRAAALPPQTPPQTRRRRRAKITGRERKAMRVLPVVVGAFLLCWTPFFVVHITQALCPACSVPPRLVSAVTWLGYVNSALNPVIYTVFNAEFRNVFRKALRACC

[3] = molecular target: T2, Muscarinic acetylcholine receptor M5 (Homo sapiens) (UniProt P08912)
T2 sequence (whole entry): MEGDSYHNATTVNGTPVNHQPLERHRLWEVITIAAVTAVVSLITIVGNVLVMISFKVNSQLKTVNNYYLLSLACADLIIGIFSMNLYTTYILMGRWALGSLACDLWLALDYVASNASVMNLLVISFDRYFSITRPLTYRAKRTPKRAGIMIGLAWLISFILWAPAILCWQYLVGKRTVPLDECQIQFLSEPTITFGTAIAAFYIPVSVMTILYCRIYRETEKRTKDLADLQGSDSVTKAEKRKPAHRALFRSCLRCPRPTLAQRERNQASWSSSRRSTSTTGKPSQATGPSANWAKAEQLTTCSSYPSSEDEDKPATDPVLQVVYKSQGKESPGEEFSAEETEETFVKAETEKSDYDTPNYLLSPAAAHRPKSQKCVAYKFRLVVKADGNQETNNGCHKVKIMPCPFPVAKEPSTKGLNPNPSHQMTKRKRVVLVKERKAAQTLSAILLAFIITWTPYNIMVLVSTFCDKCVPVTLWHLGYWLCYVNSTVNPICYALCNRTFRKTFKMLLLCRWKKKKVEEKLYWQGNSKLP

[4] = molecular target: T3, Alpha-2C adrenergic receptor (Homo sapiens) (UniProt P18825)
T3 sequence (whole entry): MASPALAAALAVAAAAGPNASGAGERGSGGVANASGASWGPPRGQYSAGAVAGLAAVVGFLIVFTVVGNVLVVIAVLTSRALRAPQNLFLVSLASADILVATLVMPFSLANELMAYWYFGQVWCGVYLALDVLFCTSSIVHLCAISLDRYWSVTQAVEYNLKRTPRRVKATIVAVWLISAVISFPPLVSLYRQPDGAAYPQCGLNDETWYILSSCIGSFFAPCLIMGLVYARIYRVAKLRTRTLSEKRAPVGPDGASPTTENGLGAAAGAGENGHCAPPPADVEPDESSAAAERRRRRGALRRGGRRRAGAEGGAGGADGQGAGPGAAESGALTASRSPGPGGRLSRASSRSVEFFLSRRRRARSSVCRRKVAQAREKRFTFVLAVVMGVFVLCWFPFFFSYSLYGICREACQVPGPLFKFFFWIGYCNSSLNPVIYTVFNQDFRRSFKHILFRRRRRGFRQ

[5] = molecular target: Translocator protein (Homo sapiens) (UniProt P30536)
Sequence of Translocator protein (Homo sapiens) (P30536 whole entry): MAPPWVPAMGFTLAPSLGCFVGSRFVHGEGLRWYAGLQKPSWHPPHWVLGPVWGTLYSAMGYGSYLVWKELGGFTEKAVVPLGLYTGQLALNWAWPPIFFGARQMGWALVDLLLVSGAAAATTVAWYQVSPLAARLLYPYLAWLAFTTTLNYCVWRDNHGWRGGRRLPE

[6] = molecular target: Beta-2 adrenergic receptor (Homo sapiens) (UniProt P07550)
Sequence of Beta-2 adrenergic receptor (Homo sapiens) (P07550 whole entry, looked up): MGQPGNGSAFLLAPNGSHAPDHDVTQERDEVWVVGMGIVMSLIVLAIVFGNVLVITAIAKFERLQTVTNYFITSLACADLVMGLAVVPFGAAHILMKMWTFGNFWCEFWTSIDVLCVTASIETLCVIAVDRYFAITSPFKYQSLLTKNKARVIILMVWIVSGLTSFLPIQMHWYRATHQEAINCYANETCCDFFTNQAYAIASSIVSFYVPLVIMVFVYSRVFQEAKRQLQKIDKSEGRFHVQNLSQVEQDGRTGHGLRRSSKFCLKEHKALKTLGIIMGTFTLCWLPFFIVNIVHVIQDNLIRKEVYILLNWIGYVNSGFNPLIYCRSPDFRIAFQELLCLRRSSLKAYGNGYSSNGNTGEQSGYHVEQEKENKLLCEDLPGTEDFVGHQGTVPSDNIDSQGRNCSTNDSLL

[7] = molecular target: Histamine H4 receptor (Homo sapiens) (UniProt Q9H3N8)
Sequence of Histamine H4 receptor (Homo sapiens) (Q9H3N8 whole entry): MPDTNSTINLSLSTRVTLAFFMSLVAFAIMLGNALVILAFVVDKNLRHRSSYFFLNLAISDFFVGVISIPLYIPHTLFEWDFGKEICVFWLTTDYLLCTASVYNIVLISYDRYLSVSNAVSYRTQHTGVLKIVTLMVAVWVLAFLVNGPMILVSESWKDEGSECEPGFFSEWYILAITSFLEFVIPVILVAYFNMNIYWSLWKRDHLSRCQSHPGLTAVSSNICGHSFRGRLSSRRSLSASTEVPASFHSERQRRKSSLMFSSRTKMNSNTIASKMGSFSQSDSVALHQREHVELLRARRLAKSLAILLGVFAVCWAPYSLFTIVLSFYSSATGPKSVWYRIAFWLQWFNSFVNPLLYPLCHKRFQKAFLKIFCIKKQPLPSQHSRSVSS

[8] = molecular target: Muscarinic acetylcholine receptor M3 (Homo sapiens) (UniProt P20309)
Sequence of Muscarinic acetylcholine receptor M3 (Homo sapiens) (P20309 whole entry, looked up): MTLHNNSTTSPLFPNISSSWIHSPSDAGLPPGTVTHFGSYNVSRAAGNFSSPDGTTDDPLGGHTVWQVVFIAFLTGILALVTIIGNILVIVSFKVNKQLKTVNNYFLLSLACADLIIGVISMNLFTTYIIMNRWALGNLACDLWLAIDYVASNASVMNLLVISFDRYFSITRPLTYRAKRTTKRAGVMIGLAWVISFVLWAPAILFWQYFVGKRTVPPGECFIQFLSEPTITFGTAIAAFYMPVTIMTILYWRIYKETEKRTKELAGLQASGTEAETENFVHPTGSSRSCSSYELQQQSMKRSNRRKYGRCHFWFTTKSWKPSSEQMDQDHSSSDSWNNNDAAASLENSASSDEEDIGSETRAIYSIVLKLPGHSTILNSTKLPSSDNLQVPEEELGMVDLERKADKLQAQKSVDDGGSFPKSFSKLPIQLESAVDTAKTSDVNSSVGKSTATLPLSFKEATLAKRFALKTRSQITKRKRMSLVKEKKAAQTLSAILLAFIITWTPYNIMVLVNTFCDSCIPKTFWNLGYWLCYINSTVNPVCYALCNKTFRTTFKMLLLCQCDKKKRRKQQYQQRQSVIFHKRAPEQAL

[9] = molecular target: T4, 5-hydroxytryptamine receptor 3A (Homo sapiens) (UniProt P46098)
T4 sequence (whole entry): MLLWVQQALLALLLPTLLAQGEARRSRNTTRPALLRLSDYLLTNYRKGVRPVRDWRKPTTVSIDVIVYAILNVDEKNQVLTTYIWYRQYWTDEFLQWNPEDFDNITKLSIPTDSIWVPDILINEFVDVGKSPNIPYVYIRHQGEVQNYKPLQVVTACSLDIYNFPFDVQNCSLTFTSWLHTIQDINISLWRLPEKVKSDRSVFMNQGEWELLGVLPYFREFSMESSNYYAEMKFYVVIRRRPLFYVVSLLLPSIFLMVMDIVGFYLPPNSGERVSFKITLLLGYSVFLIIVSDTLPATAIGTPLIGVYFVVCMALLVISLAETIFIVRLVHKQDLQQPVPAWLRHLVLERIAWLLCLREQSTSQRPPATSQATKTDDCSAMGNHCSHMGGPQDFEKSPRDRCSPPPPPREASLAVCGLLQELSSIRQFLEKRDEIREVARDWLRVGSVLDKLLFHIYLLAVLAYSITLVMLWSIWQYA

[10] = molecular target: Delta-type opioid receptor (Homo sapiens) (UniProt P41143)
Sequence of Delta-type opioid receptor (Homo sapiens) (P41143 whole entry): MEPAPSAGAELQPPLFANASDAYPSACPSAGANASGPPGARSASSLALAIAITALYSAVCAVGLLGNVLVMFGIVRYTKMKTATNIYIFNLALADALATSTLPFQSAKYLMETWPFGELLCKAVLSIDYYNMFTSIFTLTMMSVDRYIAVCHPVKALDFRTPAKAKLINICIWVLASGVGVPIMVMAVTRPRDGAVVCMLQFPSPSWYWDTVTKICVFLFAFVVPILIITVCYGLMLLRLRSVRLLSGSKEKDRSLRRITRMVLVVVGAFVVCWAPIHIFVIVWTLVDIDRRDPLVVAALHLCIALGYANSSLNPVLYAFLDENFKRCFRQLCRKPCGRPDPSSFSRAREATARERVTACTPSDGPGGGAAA

[11] = molecular target: Beta-1 adrenergic receptor (Homo sapiens) (UniProt P08588)
Sequence of Beta-1 adrenergic receptor (Homo sapiens) (P08588 whole entry, looked up): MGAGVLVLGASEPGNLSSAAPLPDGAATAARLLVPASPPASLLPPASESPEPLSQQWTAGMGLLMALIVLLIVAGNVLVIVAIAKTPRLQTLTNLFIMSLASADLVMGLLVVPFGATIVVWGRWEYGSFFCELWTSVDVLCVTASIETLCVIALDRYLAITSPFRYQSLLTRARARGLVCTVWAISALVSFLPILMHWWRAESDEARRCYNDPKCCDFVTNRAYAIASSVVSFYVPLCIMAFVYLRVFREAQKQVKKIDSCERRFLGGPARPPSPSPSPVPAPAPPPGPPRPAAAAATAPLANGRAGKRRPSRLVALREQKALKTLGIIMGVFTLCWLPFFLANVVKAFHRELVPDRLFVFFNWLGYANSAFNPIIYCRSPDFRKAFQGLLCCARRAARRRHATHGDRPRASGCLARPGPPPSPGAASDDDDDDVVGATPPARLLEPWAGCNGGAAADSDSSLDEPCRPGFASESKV

[12] = molecular target: T5, Alpha-2B adrenergic receptor (Homo sapiens) (UniProt P18089)
T5 sequence (whole entry): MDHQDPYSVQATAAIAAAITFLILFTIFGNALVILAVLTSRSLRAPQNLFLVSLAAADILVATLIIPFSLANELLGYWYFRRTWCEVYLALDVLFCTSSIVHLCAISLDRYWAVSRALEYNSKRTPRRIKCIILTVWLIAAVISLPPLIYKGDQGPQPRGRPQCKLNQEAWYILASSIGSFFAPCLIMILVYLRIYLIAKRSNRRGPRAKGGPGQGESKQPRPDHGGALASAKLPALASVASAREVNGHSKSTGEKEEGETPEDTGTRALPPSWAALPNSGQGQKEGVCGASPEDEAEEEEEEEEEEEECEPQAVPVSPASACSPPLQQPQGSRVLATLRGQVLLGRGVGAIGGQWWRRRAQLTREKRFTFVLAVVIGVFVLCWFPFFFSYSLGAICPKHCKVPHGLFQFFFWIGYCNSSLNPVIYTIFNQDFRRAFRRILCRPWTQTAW

Sequence of Sodium-dependent noradrenaline transporter (Homo sapiens) (P23975 whole entry): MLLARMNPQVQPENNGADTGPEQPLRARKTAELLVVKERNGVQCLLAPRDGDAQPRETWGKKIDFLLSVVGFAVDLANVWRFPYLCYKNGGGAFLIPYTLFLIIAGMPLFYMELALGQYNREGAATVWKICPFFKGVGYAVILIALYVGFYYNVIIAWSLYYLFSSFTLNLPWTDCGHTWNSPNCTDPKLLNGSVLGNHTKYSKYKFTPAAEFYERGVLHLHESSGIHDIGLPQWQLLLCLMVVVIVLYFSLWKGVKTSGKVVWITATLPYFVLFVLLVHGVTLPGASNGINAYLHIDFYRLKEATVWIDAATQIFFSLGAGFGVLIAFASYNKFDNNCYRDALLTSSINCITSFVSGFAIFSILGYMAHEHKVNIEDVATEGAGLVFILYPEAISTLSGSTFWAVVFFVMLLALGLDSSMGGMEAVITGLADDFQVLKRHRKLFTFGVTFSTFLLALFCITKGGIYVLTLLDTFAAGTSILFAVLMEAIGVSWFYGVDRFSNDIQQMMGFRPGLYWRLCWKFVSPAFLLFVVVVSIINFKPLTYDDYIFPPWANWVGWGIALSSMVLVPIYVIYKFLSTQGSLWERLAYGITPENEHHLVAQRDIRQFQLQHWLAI

CCc1nn(CCCN2CCN(c3cccc(Cl)c3)CC2)c(=O)n1CCOc1ccccc1
inhibition [1]: 85.1%
inhibition [2]: 89.3%
inhibition [3]: 30.8%
inhibition [4]: 95.3%
inhibition [5]: 64.2%
inhibition [6]: -0.82%
inhibition [7]: 5.27%
inhibition [8]: 0.27%
inhibition [9]: 3.68%
inhibition [10]: 13%
inhibition [11]: 30.7%
inhibition [12]: 103%

CCCCCCCCCCCCC/C=C/[C@@H](O)[C@@H](N)COP(=O)(O)O
inhibition [1]: 35.1%
inhibition [3]: 6.31%
inhibition [4]: -4.87%
inhibition [5]: 64.6%
inhibition [7]: 7.9%
inhibition [8]: 9.29%
inhibition [9]: -1.93%
inhibition [10]: 20.4%
inhibition [11]: 0.96%
inhibition [12]: -1.62%

COc1ccc(CNC(=O)c2cc(-c3cncc(Cl)c3)cnc2-c2ccccn2)nc1OC
inhibition [1]: 39%
inhibition [2]: -1.86%
inhibition [3]: 0.79%
inhibition [4]: 7.09%
inhibition [5]: 17.5%
inhibition [6]: -9.92%
inhibition [7]: 5.15%
inhibition [8]: -0.37%
inhibition [10]: -4.67%
inhibition [11]: 30.3%
inhibition [12]: -7.15%

Cc1cc(C)cc(-c2cnc3cc(Cl)c(-c4cccc(O)c4)cc3c2OCCCN)c1
inhibition [1]: 59.5%
inhibition [2]: 32.1%
inhibition [3]: 3.7%
inhibition [4]: 68%
inhibition [5]: 79.5%
inhibition [6]: 92.8%
inhibition [7]: 68.2%
inhibition [8]: 59.2%
inhibition [9]: 43.9%
inhibition [10]: 50.2%
inhibition [11]: 19.6%
inhibition [12]: 25.7%

c1nc(CC2CCNCC2)c[nH]1
inhibition [1]: 15.7%
inhibition [2]: 14.9%
inhibition [3]: 1.07%
inhibition [4]: -1.91%
inhibition [6]: 5.09%
inhibition [7]: 105%
inhibition [8]: 6.47%
inhibition [9]: 6.29%
inhibition [10]: 3.71%
inhibition [11]: -4.6%
inhibition [12]: 23%

COc1ccc(NC(=O)c2ccc(-c3ccc(-c4noc(C)n4)cc3C)cc2)cc1OCCN(C)C
inhibition [1]: 94%
inhibition [2]: 45.4%
inhibition [3]: 37.9%
inhibition [4]: 79%
inhibition [5]: 31.1%
inhibition [6]: 13.1%
inhibition [7]: 49%
inhibition [8]: 37.2%
inhibition [9]: 5.18%
inhibition [10]: 0.83%
inhibition [11]: 4.01%
inhibition [12]: 77.3%

Cc1nc(C#Cc2ccnc(Cl)c2)c(C)n1-c1ccc(OC(F)(F)F)cc1
inhibition [1]: 1.45%
inhibition [2]: -0.11%
inhibition [3]: -6.77%
inhibition [4]: -5.37%
inhibition [5]: 64.3%
inhibition [7]: -9.98%
inhibition [8]: -6.52%
inhibition [9]: -5.17%
inhibition [10]: -5.91%
inhibition [11]: 29.4%
inhibition [12]: 67.9%

COc1ccc2cc(S(=O)(=O)N[C@H](CC(=O)N[C@H](Cc3ccc(CN4[C@H](C)CCC[C@@H]4C)cc3)C(=O)N(C)C(C)C)c3ccc4c(c3)OCO4)ccc2c1
inhibition [1]: 25.7%
inhibition [2]: 33.2%
inhibition [3]: 52.8%
inhibition [4]: 71.8%
inhibition [5]: 0.6%
inhibition [7]: 9.34%
inhibition [8]: 14.5%
inhibition [9]: 12.8%
inhibition [10]: 8.79%
inhibition [11]: -0.19%
inhibition [12]: 33.5%

CN[C@@H]1CCc2[nH]c3ccc(C(N)=O)cc3c2C1
inhibition [1]: -1.01%
inhibition [2]: 64.7%
inhibition [3]: -1.58%
inhibition [5]: -4.51%
inhibition [6]: 22.7%
inhibition [7]: 2.79%
inhibition [8]: 15.7%
inhibition [9]: 24.7%
inhibition [10]: 2.74%
inhibition [11]: 1.5%
inhibition [12]: 13.7%

c1cc(CN2CCCNCCNCCCNCC2)ccc1CN1CCCNCCNCCCNCC1
inhibition [1]: 33.4%
inhibition [3]: 1.58%
inhibition [4]: 66.3%
inhibition [5]: 7.76%
inhibition [6]: -4.45%
inhibition [7]: 11.2%
inhibition [8]: -4.94%
inhibition [9]: 21.9%
inhibition [10]: -4.5%
inhibition [11]: 34.9%
inhibition [12]: -9.59%

O=C(O)c1cc(-c2ccc(C3CCNCC3)cc2)c2ccc(-c3ccc(C(F)(F)F)cc3)cc2c1
inhibition [1]: 88%
inhibition [3]: 51.9%
inhibition [4]: 27.2%
inhibition [5]: 21.7%
inhibition [6]: -2.41%
inhibition [7]: -8.87%
inhibition [8]: 1.23%
inhibition [9]: 21.6%
inhibition [10]: 14%
inhibition [11]: 47%
inhibition [12]: 40.4%

CCc1cc2c(cc1CC)CC(NC[C@H](O)c1ccc(O)c3[nH]c(=O)ccc13)C2
inhibition [1]: 84.6%
inhibition [2]: 24.2%
inhibition [3]: 37.8%
inhibition [4]: 30%
inhibition [6]: 94.3%
inhibition [7]: 4.91%
inhibition [8]: 18.1%
inhibition [9]: -4.69%
inhibition [10]: 1.1%
inhibition [11]: 68%
inhibition [12]: 38.5%

CN1CCC(C(=O)c2cccc(NC(=O)c3c(F)cc(F)cc3F)n2)CC1
inhibition [1]: 23.5%
inhibition [2]: 14%
inhibition [3]: 64%
inhibition [4]: 6.36%
inhibition [6]: -3.08%
inhibition [7]: -0.15%
inhibition [8]: 43.5%
inhibition [9]: 20.9%
inhibition [10]: 1.97%
inhibition [11]: -2.95%
inhibition [12]: 20.8%

NC(=O)[C@@H]1CCCN1C(=O)[C@H](Cc1c[nH]cn1)NC(=O)[C@@H]1CCC(=O)N1
inhibition [1]: 35.9%
inhibition [2]: 18.4%
inhibition [3]: 5.07%
inhibition [4]: 49.8%
inhibition [5]: 73.2%
inhibition [7]: 8.04%
inhibition [8]: 0.84%
inhibition [9]: 8.73%
inhibition [10]: 1.37%
inhibition [11]: -1.74%
inhibition [12]: 14%

O=c1ccn([C@@H]2O[C@H](COP(=O)(O)OP(=O)(O)OP(=O)(O)O)[C@@H](O)[C@H]2O)c(=O)[nH]1
inhibition [1]: 11%
inhibition [2]: 53.3%
inhibition [3]: 7.7%
inhibition [4]: 6.85%
inhibition [5]: 56.6%
inhibition [7]: 4.53%
inhibition [8]: 5.24%
inhibition [9]: -3.36%
inhibition [10]: -0.41%
inhibition [11]: -2.2%
inhibition [12]: 0.09%
